Results reported in patent US11903908B2, “Methods of administering amantadine” (Adamas Pharma, LLC, priority 2013, dated 2024).
Structures can show the parent of a compound that is named as a salt. Where two headings read alike, the source gives them in different places.

Legend:
[1] = system: PD patients with levodopa-induced dyskinesia (LID); conditions: cited from earlier work
[2] = system: subjects with Parkinson's Disease (PD) who have levodopa-induced dyskinesia (LID); experiment: Randomized, double-blind, placebo-controlled study of Amantadine ER capsules for levodopa-induced dyskinesia in Parkinson's Disease (Example 5)
Excerpt: Study Objectives: This study was designed to evaluate the efficacy of three dose levels of Amantadine Extended Release (ER) oral capsules dosed once nightly at nighttime for the treatment of levodopa-induced dyskinesia (LID) in subjects with Parkinson's Disease (PD). […] Study design: This was a multi-center, randomized, double-blind, placebo-controlled, 4-arm parallel group study of Amantadine ER in subjects with PD who have LID.
Subjects who were randomized to Treatment C received, in double-blind fashion, 260 mg Amantadine ER once nightly during week 1, with an increase to 340 mg once nightly at the beginning of week 2. Subjects who were randomized to Treatment D, in double-blind fashion, 260 mg Amantadine ER once nightly during week 1, with an increase to 340 mg Amantadine ER once nightly during week 2, with a further increase to 420 mg once nightly at the beginning of week 3. Dosing for all groups continued at the nominal dose through week 8.
Following completion of the baseline visit and randomization, subjects returned to the clinic after 1, 2, 4, 6, and 8 weeks of dosing, with a follow-up visit 14 days following the last dose of study drug. Study visits and assessments were scheduled during the hours between 10 am through 4 pm. A set of two 24-hour diaries were be completed during 48 hours prior to randomization and 48 hours prior to selected study visits. The diary was used to score five different conditions in 30-minute intervals: Sleep, OFF, ON without dyskinesias, ON with nontroublesome dyskinesias, ON with troublesome dyskinesias.
Blood samples were collected at selected study visits for determination of amantadine plasma concentrations, and evaluation of steady-state population pharmacokinetics. Subject participation during the study was up to 12 weeks including a 2-week (maximum) screening period, 8-week (maximum) treatment period, and a 2-week follow-up period. Subjects unable to tolerate their assigned study drug assignment permanently discontinued study drug and continued to be followed for safety through 2 weeks following the last dose of study drug. […]

[3] = amantadine IR 200 mg/day, PD patients

SMILES: NC12CC3CC(CC(C3)C1)C2 [amantadine, Amantadine HCl]
- reduction in LID [1, 3]: approximately 25%
- tolerability [1, 3]: generally tolerated by the majority of PD patients
- CNS side effects ([1]; amantadine IR 300 mg/day or higher): associated with central nervous system (CNS) side effects
- reduction of LID ([1]; amantadine IR 300 mg/day, PD patients): ~40%
- reduction of LID ([1]; amantadine IR 300 to 400 mg/day, one study): ~60%
- effect on motor fluctuations (ON/OFF) ([1]; later stages of PD): no effect
- discontinuation rates ([2]; 420 mg once nightly): higher discontinuation rates
- frequency of side effects ([2]; 420 mg once nightly): comparable frequency of side effects
- tolerability ([2]; 260-420 mg once nightly, Parkinson's disease patients): well tolerated
